Columns and labels:
Type in all cases: in vivo
[1] = test system: Diabrotica balteata; assay: Example B1: Diabrotica balteata (corn root worm), maize sprouts sprayed, L2 larvae; conditions: 96 h, application rate of 200 ppm, 4 days after infestation, L2 larvae on maize sprouts, read-out: control in at least one of the two categories (mortality or growth inhibition)
Procedure: Example B1: Diabrotica balteata (Corn Root Worm)
Maize sprouts placed onto an agar layer in 24-well microtiter plates were treated with aqueous test solutions prepared from 10′000 ppm DMSO stock solutions by spraying. After drying, the plates were infested with L2 larvae (6 to 10 per well). The samples were assessed for mortality and growth inhibition in comparison to untreated samples 4 days after infestation.

[2] = test system: Frankliniella occidentalis; assay: Example B3: Frankliniella occidentalis (western flower thrips) feeding/contact activity; conditions: foliar, 168 h, application rate of 200 ppm, 7 days after infestation, sunflower leaf discs, mixed ages
Procedure: Example B3: Frankliniella occidentalis (Western Flower Thrips) Feeding/Contact Activity
(§1) Sunflower leaf discs were placed on agar in 24-well microtiter plates and sprayed with aqueous test solutions prepared from 10′000 DMSO stock solutions. After drying the leaf discs were infested with a Frankliniella population of mixed ages. The samples were assessed for mortality 7 days after infestation.

[3] = test system: Chilo suppressalis; assay: Example B4: Chilo suppressalis (striped rice stemborer), artificial diet, L2 larvae; conditions: 144 h, application rate of 200 ppm, 6 days after infestation, read-out: control in at least one of the three categories (mortality, anti-feedant effect or growth inhibition)
Procedure: Example B4: Chilo suppressalis (Striped Rice Stemborer)
24-well microtiter plates with artificial diet were treated with aqueous test solutions prepared from 10′000 ppm DMSO stock solutions by pipetting. After drying, the plates were infested with L2 larvae (6-8 per well). The samples were assessed for mortality, anti-feeding effect, and growth inhibition in comparison to untreated samples 6 days after infestation. Control of Chilo suppressalis by a test sample is given when at least one of the categories mortality, anti-feedant effect, and growth inhibition is higher than the untreated sample.

[4] = test system: Plutella xylostella; assay: Example B5: Plutella xylostella (diamond back moth), artificial diet, 24-well, eggs; conditions: 192 h, application rate of 200 ppm, 8 days after infestation, read-out: control in at least one of the two categories (mortality or growth inhibition)
Procedure: Example B5: Plutella xylostella (Diamond Back Moth)
24-well microtiter plates with artificial diet were treated with aqueous test solutions prepared from 10′000 ppm DMSO stock solutions by pipetting. After drying, Plutella eggs were pipetted through a plastic stencil onto a gel blotting paper and the plate was closed with it. The samples were assessed for mortality and growth inhibition in comparison to untreated samples 8 days after infestation.

[5] = test system: Myzus persicae; assay: Example B8: Myzus persicae (green peach aphid) intrinsic activity; conditions: 120 h, test rate of 12 ppm, 5 days after infestation, sucrose solution
Source text: Example B8: Myzus persicae (Green Peach Aphid). Intrinsic Activity
Test compounds prepared from 10′000 ppm DMSO stock solutions were applied by pipette into 24-well microtiter plates and mixed with sucrose solution. The plates were closed with a stretched Parafilm. A plastic stencil with 24 holes was placed onto the plate and infested pea seedlings were placed directly on the Parafilm. The infested plate was closed with a gel blotting paper and another plastic stencil and then turned upside down. The samples were assessed for mortality 5 days after infestation.

[6] = test system: Spodoptera littoralis; assay: Example B9: Spodoptera littoralis (Egyptian cotton leaf worm), cotton leaf discs sprayed, L1 larvae; conditions: foliar, 72 h, application rate of 200 ppm, 3 days after infestation, read-out: control in at least one of the three categories (mortality, anti-feedant effect or growth inhibition)
[7] = test system: Myzus persicae; assay: Example B13: Myzus persicae (green peach aphid), 96-well sucrose solution; conditions: 120 h, application rate of 50 ppm, 5 days after infestation
Source text: Example B13: Myzus persicae (Green Peach Aphid)
Test compounds prepared from 10′000 ppm DMSO stock solutions were applied by a liquid handling robot into 96-well microtiter plates and mixed with a sucrose solution. Parafilm was stretched over the 96-well microtiter plate and a plastic stencil with 96 holes was placed onto the plate. Aphids were sieved into the wells directly onto the Parafilm. The infested plates were closed with a gel blotting card and a second plastic stencil and then turned upside down. The samples were assessed for mortality 5 days after infestation.

[8] = test system: Plutella xylostella; assay: Example B14: Plutella xylostella (diamondback moth), 96-well artificial diet; conditions: 216 h, application rate of 500 ppm, 9 days after infestation
Procedure: Example B14: Plutella xylostella (Diamondback Moth)
96-well microtiter plates containing artificial diet were treated with aqueous test solutions, prepared from 10′000 ppm DMSO stock solutions, by a liquid handling robot. After drying, eggs (˜30 per well) were infested onto a netted lid which was suspended above the diet. The eggs hatch and L1 larvae move down to the diet. The samples were assessed for mortality 9 days after infestation.

[9] = test system: Euschistus heros; assay: Example B2: Euschistus heros (neotropical brown stink bug), soybean leaves sprayed, N2 nymphs; conditions: 120 h, application rate of 200 ppm, 5 days after infestation, N2 nymphs on soybean leaves, read-out: control in at least one of the two categories (mortality or growth inhibition)
Procedure: Example B2: Euschistus heros (Neotropical Brown Stink Bug)
Soybean leaves on agar in 24-well microtiter plates were sprayed with aqueous test solutions prepared from 10′000 ppm DMSO stock solutions. After drying the leaves were infested with N2 nymphs. The samples were assessed for mortality and growth inhibition in comparison to untreated samples 5 days after infestation.

[10] = test system: Thrips tabaci; assay: Example B12: Thrips tabaci (onion thrips) feeding/contact activity; conditions: foliar, 144 h, application rate of 200 ppm, 6 days after infestation, sunflower leaf discs
Procedure: Example B12: Thrips tabaci (Onion Thrips) Feeding/Contact Activity
as §1, with “10′000 ppm” for “10′000”, “Thrips” for “Frankliniella”, “6” for “7”

[11] = test system: Myzus persicae; assay: Example B6: Myzus persicae (green peach aphid) feeding/contact activity; conditions: foliar, 144 h, application rate of 200 ppm, 6 days after infestation, sunflower leaf discs
Procedure: Example B6: Myzus persicae (Green Peach Aphid) Feeding/Contact Activity
Sunflower leaf discs were placed onto agar in a 24-well microtiter plate and sprayed with aqueous test solutions prepared from 10′000 ppm DMSO stock solutions. After drying, the leaf discs were infested with an aphid population of mixed ages. The samples were assessed for mortality 6 days after infestation.

[12] = test system: Myzus persicae; assay: Example B7: Myzus persicae (green peach aphid) systemic activity; conditions: 144 h, test rate of 24 ppm, 6 days after placing seedlings into test solutions, pea seedlings
Procedure: Example B7: Myzus persicae (Green Peach Aphid) Systemic Activity
Roots of pea seedlings infested with an aphid population of mixed ages were placed directly into aqueous test solutions prepared from 10′000 DMSO stock solutions. The samples were assessed for mortality 6 days after placing seedlings into test solutions.

[13] = test system: Spodoptera littoralis; assay: Example B10: Spodoptera littoralis (Egyptian cotton leaf worm), uptake by lettuce roots from agar; conditions: 144 h, test rate of 12.5 ppm, 6 days after infestation, lettuce grown on treated agar, read-out: control in at least one of the three categories (mortality, anti-feeding, or growth inhibition)
Source text: Example B10: Spodoptera littoralis (Egyptian Cotton Leaf Worm)
Test compounds were applied by pipette from 10′000 ppm DMSO stock solutions into 24-well plates and mixed with agar. Lettuce seeds were placed onto the agar and the multi well plate was closed by another plate which contained also agar. After 7 days the compound was absorbed by the roots and the lettuce grew into the lid plate. The lettuce leaves were then cut off into the lid plate. Spodoptera eggs were pipetted through a plastic stencil onto a humid gel blotting paper and the lid plate was closed with it. The samples were assessed for mortality, anti-feedant effect and growth inhibition in comparison to untreated samples 6 days after infestation.

[14] = test system: Tetranychus urticae; assay: Example B11: Tetranychus urticae (two-spotted spider mite) feeding/contact activity; conditions: foliar, 192 h, application rate of 200 ppm, 8 days after infestation, bean leaf discs, mixed population (mobile stages)
Procedure: Example B11: Tetranychus urticae (Two-Spotted Spider Mite): Feeding/Contact Activity
Bean leaf discs on agar in 24-well microtiter plates were sprayed with aqueous test solutions prepared from 10′000 ppm DMSO stock solutions. After drying the leaf discs were infested with a mite population of mixed ages. The samples were assessed for mortality on mixed population (mobile stages) 8 days after infestation.

CC(NC(=O)c1cc(SC(F)(F)F)cc(C(F)(F)F)c1)c1nccnc1-c1ncccn1 (centres unmarked) [Compound P19, N-[1-(3-pyrimidin-2-ylpyrazin-2-yl)ethyl]-3-(trifluoromethyl)-5-(trifluoromethylsulfanyl)benzamide]
≥ 80%: percent control (mortality or growth inhibition) at 200 ppm [1] | mortality at 200 ppm [2] | percent control (mortality, anti-feedant effect or growth inhibition) at 200 ppm [3] | percent control (mortality or growth inhibition) at 200 ppm [4] | mortality at 12 ppm [5] | percent control (mortality, anti-feedant effect or growth inhibition) at 200 ppm [6] | mortality at 50 ppm [7] | mortality at 500 ppm [8]

CC(c1nccnc1-c1ncccn1)N(CC1CC1)C(=O)c1cc(C(F)(F)F)cc(C(F)(F)F)c1 (centres unmarked) [Compound P5, N-(cyclopropylmethyl)-N-[1-(3-pyrimidin-2-ylpyrazin-2-yl)ethyl]-3,5-bis(trifluoromethyl)benzamide]
≥ 80%: percent control (mortality or growth inhibition) at 200 ppm [1] | percent control (mortality or growth inhibition) at 200 ppm [9] | percent control (mortality, anti-feedant effect or growth inhibition) at 200 ppm [3] | percent control (mortality or growth inhibition) at 200 ppm [4] | mortality at 12 ppm [5] | percent control (mortality, anti-feedant effect or growth inhibition) at 200 ppm [6] | mortality at 200 ppm [10] | mortality at 50 ppm [7] | mortality at 500 ppm [8]

CC(NC(=O)c1cc(OC(F)F)cc(C(F)(F)F)c1)c1nccnc1-c1ncccn1 (centres unmarked) [Compound P23, 3-(difluoromethoxy)-N-[1-(3-pyrimidin-2-ylpyrazin-2-yl)ethyl]-5-(trifluoromethyl)benzamide]
≥ 80%: percent control (mortality or growth inhibition) at 200 ppm [1] | percent control (mortality or growth inhibition) at 200 ppm [9] | percent control (mortality, anti-feedant effect or growth inhibition) at 200 ppm [3] | percent control (mortality or growth inhibition) at 200 ppm [4] | mortality at 200 ppm [11] | mortality at 24 ppm [12] | mortality at 12 ppm [5] | percent control (mortality, anti-feedant effect or growth inhibition) at 200 ppm [6] | percent control (mortality, anti-feeding or growth inhibition) at 12.5 ppm [13] | mortality at 200 ppm [14] | mortality at 50 ppm [7] | mortality at 500 ppm [8]

From patent publication US12528788B2, “Pesticidally active benzene- and azine-amide compounds” (SYNGENTA CROP PROTECTION AG, priority 2018, dated 2026)
